Laboratory results published in patent US3955959A, “Herbicide for use in transplanted rice” (priority 1974, dated 1976).

Legend:
Type in all cases: in vivo
[1] = system: Ek (Eleocharis kuroguwai); assay: Other tests, perennial control
Et (Elatine triandra) = assay: Example 6 weed control, JAAPR, Japan
Method: (§1) In this example, the efficacy of Herbicide A is presented for a variety of weeds in the presence of ordinary and infant transplant rice. In this example, tests were conducted at the said JAAPR Lab at different times of the year. "Early season" transplants were made in April and "Normal season" transplants were made in July. The size of the transplants at the respective seasons were: Season Seedling Type Plant Height (cm) Leaf Stage ______________________________________ Early Ordinary 16.5 4.5 Early Infant 9.1 2.4 Normal Ordinary 41.7 5.3 Normal Infant 14.7 1.9 ______________________________________
(§2) Duplicate treatments were used. At the time of application of the herbicide, the status of the grass (EC) was as follows: […]

Ri (Rotala indica) = assay: Example 6 weed control, JAAPR, Japan
Method: as §1, §2

[2] = system: Obw (other broadleaf weeds); assay: Example 6 weed control, JAAPR, Japan; settings: ordinary
Method: as §1, §2

[3] = system: Ea (Eleocharis acicularis); assay: Example 6 weed control, JAAPR, Japan
Method: as §1, §2

Sp (Sagittaria pygmaea) = assay: Example 6 weed control, JAAPR, Japan; settings: Normal season
Method: as §1, §2

[4] = system: Mv (Monochoria vaginalis); assay: Example 6 weed control, JAAPR, Japan
Method: as §1, §2

Cd (Cyperus difformis) = assay: Example 6 weed control, JAAPR, Japan
Method: as §1, §2

[5] = system: Ec (Echinochloa crusgalli); assay: Example 6 weed control, JAAPR, Japan
Method: as §1, §2

transplanted rice = assay: Crop safety to transplanted rice, general
Sa (Sagittaria aginashi) = assay: Other tests, perennial control
[6] = Early season, ordinary, 1.0 kg/ha, 3 DAT
[7] = Early season, ordinary, 1.0 kg/ha, 12 DAT
[8] = Early season, ordinary, 1.0 kg/ha, -2 DAT
[9] = Early season, ordinary, .5 kg/ha, 3 DAT
[10] = Early season, ordinary, .5 kg/ha, 12 DAT
[11] = Early season, ordinary, .5 kg/ha, -2 DAT
[12] = Normal season, infant, 1.0 kg/ha, 3 DAT
[13] = Normal season, infant, 1.0 kg/ha, 7 DAT
[14] = Normal season, infant, 1.0 kg/ha, -2 DAT
[15] = Normal season, infant, .5 kg/ha, 3 DAT
[16] = Normal season, infant, .5 kg/ha, 7 DAT
[17] = Normal season, infant, .5 kg/ha, -2 DAT
[18] = Normal season, ordinary, 1.0 kg/ha, 3 DAT
[19] = Normal season, ordinary, 1.0 kg/ha, 7 DAT
[20] = Normal season, ordinary, 1.0 kg/ha, -2 DAT
[21] = Normal season, ordinary, .5 kg/ha, 3 DAT
[22] = Normal season, ordinary, .5 kg/ha, 7 DAT
[23] = Normal season, ordinary, .5 kg/ha, -2 DAT

For `CCCCOCN(C(=O)CCl)c1c(C)cccc1C(C)(C)C` [Herbicide A, n-(butoxymethyl)-6'-tert-butyl-2-chloro-o-acetotoluidide], the “control of perennial Ek” value [1] was “fair to good”, the “% Weed Control (Et)” value (Et (Elatine triandra); [6]) was 95% and the “% Weed Control (Et)” value (Et (Elatine triandra); [7]) was 70%. The “% Weed Control (Et)” value (Et (Elatine triandra); [8]) was 95%, the “% Weed Control (Et)” value (Et (Elatine triandra); [9]) was 70% and the “% Weed Control (Et)” value (Et (Elatine triandra); [10]) was less than 40%. For the same compound, the “% Weed Control (Et)” value (Et (Elatine triandra); [11]) was 95%, the “% Weed Control (Et)” value (Et (Elatine triandra); [12]) was 100% and the “% Weed Control (Et)” value (Et (Elatine triandra); [13]) was 100%. For the same compound, the “% Weed Control (Et)” value (Et (Elatine triandra); [14]) was 100%, the “% Weed Control (Et)” value (Et (Elatine triandra); [15]) was 100% and the “% Weed Control (Et)” value (Et (Elatine triandra); [16]) was 100%. For the same compound, the “% Weed Control (Et)” value (Et (Elatine triandra); [17]) was 100%, the “% Weed Control (Et)” value (Et (Elatine triandra); [18]) was 100% and the “% Weed Control (Et)” value (Et (Elatine triandra); [19]) was 100%. For the same compound, the “% Weed Control (Et)” value (Et (Elatine triandra); [20]) was 100%, the “% Weed Control (Et)” value (Et (Elatine triandra); [21]) was 100% and the “% Weed Control (Et)” value (Et (Elatine triandra); [22]) was 100%. For the same compound, the “% Weed Control (Et)” value (Et (Elatine triandra); [23]) was 100%, the “% Weed Control (Ri)” value (Ri (Rotala indica); [6]) was 100% and the “% Weed Control (Ri)” value (Ri (Rotala indica); [7]) was 100%. The “% Weed Control (Ri)” value (Ri (Rotala indica); [8]) was 100%, the “% Weed Control (Ri)” value (Ri (Rotala indica); [9]) was 100% and the “% Weed Control (Ri)” value (Ri (Rotala indica); [10]) was 100%. For the same compound, the “% Weed Control (Ri)” value (Ri (Rotala indica); [11]) was 100%, the “% Weed Control (Ri)” value (Ri (Rotala indica); [12]) was 100% and the “% Weed Control (Ri)” value (Ri (Rotala indica); [13]) was 100%. The “% Weed Control (Ri)” value (Ri (Rotala indica); [14]) was 100%, the “% Weed Control (Ri)” value (Ri (Rotala indica); [15]) was 100% and the “% Weed Control (Ri)” value (Ri (Rotala indica); [16]) was 100%. The “% Weed Control (Ri)” value (Ri (Rotala indica); [17]) was 100%, the “% Weed Control (Ri)” value (Ri (Rotala indica); [18]) was 100% and the “% Weed Control (Ri)” value (Ri (Rotala indica); [19]) was 100%. For the same compound, the “% Weed Control (Ri)” value (Ri (Rotala indica); [20]) was 100%, the “% Weed Control (Ri)” value (Ri (Rotala indica); [21]) was 100% and the “% Weed Control (Ri)” value (Ri (Rotala indica); [22]) was 100%. For the same compound, the “% Weed Control (Ri)” value (Ri (Rotala indica); [23]) was 100%, the “% Weed Control (Obw)” value ([2]; Early season, 1.0 kg/ha, 3 DAT) was 100% and the “% Weed Control (Obw)” value ([2]; Early season, 1.0 kg/ha, 12 DAT) was 50%. The “% Weed Control (Obw)” value ([2]; Early season, 1.0 kg/ha, -2 DAT) was 100%, the “% Weed Control (Obw)” value ([2]; Early season, .5 kg/ha, 3 DAT) was 100% and the “% Weed Control (Obw)” value ([2]; Early season, .5 kg/ha, 12 DAT) was 100%. The “% Weed Control (Obw)” value ([2]; Early season, .5 kg/ha, -2 DAT) was 100%, the “% Weed Control (Obw)” value ([2]; Normal season, 1.0 kg/ha, 3 DAT) was 100% and the “% Weed Control (Obw)” value ([2]; Normal season, 1.0 kg/ha, 7 DAT) was 100%. The “% Weed Control (Obw)” value ([2]; Normal season, 1.0 kg/ha, -2 DAT) was 100%, the “% Weed Control (Obw)” value ([2]; Normal season, .5 kg/ha, 3 DAT) was 100% and the “% Weed Control (Obw)” value ([2]; Normal season, .5 kg/ha, 7 DAT) was 100%. The “% Weed Control (Obw)” value ([2]; Normal season, .5 kg/ha, -2 DAT) was 100%, the “% Weed Control (Ea)” value [3, 6] was 100% and the “% Weed Control (Ea)” value [3, 7] was 100%. For the same compound, the “% Weed Control (Ea)” value [3, 8] was 100%, the “% Weed Control (Ea)” value [3, 9] was 100% and the “% Weed Control (Ea)” value [3, 10] was 100%. The “% Weed Control (Ea)” value [3, 11] was 100%, the “% Weed Control (Ea)” value [3, 12] was 100% and the “% Weed Control (Ea)” value [3, 13] was 100%. The “% Weed Control (Ea)” value [3, 14] was 100%, the “% Weed Control (Ea)” value [3, 15] was 100% and the “% Weed Control (Ea)” value [3, 16] was 100%. The “% Weed Control (Ea)” value [3, 17] was 100%, the “% Weed Control (Ea)” value [3, 18] was 100% and the “% Weed Control (Ea)” value [3, 19] was 100%. The “% Weed Control (Ea)” value [3, 20] was 100%, the “% Weed Control (Ea)” value [3, 21] was 100% and the “% Weed Control (Ea)” value [3, 22] was 100%. For the same compound, the “% Weed Control (Ea)” value [3, 23] was 100%, the “% Weed Control (Sp)” value (Sp (Sagittaria pygmaea); infant, 1.0 kg/ha, 3 DAT) was less than 40% and the “% Weed Control (Sp)” value (Sp (Sagittaria pygmaea); infant, 1.0 kg/ha, 7 DAT) was less than 40%. For the same compound, the “% Weed Control (Sp)” value (Sp (Sagittaria pygmaea); infant, 1.0 kg/ha, -2 DAT) was less than 40%, the “% Weed Control (Sp)” value (Sp (Sagittaria pygmaea); infant, .5 kg/ha, 3 DAT) was less than 40% and the “% Weed Control (Sp)” value (Sp (Sagittaria pygmaea); infant, .5 kg/ha, 7 DAT) was less than 40%. For the same compound, the “% Weed Control (Sp)” value (Sp (Sagittaria pygmaea); infant, .5 kg/ha, -2 DAT) was less than 40%, the “% Weed Control (Sp)” value (Sp (Sagittaria pygmaea); ordinary, 1.0 kg/ha, 3 DAT) was less than 40% and the “% Weed Control (Sp)” value (Sp (Sagittaria pygmaea); ordinary, 1.0 kg/ha, 7 DAT) was less than 40%. For the same compound, the “% Weed Control (Sp)” value (Sp (Sagittaria pygmaea); ordinary, 1.0 kg/ha, -2 DAT) was less than 40%, the “% Weed Control (Sp)” value (Sp (Sagittaria pygmaea); ordinary, .5 kg/ha, 3 DAT) was less than 40% and the “% Weed Control (Sp)” value (Sp (Sagittaria pygmaea); ordinary, .5 kg/ha, 7 DAT) was less than 40%. The “% Weed Control (Sp)” value (Sp (Sagittaria pygmaea); ordinary, .5 kg/ha, -2 DAT) was less than 40%, the “% Weed Control (Mv)” value [4, 6] was 100% and the “% Weed Control (Mv)” value [4, 7] was 95%. The “% Weed Control (Mv)” value [4, 8] was 100%, the “% Weed Control (Mv)” value [4, 9] was 95% and the “% Weed Control (Mv)” value [4, 10] was 95%. The “% Weed Control (Mv)” value [4, 11] was 95%, the “% Weed Control (Mv)” value [4, 12] was 100% and the “% Weed Control (Mv)” value [4, 13] was 85%. The “% Weed Control (Mv)” value [4, 14] was 100%, the “% Weed Control (Mv)” value [4, 15] was 100% and the “% Weed Control (Mv)” value [4, 16] was 70%. For the same compound, the “% Weed Control (Mv)” value [4, 17] was 100%, the “% Weed Control (Mv)” value [4, 18] was 100% and the “% Weed Control (Mv)” value [4, 19] was 100%. For the same compound, the “% Weed Control (Mv)” value [4, 20] was 100%, the “% Weed Control (Mv)” value [4, 21] was 100% and the “% Weed Control (Mv)” value [4, 22] was 95%. For the same compound, the “% Weed Control (Mv)” value [4, 23] was 100%, the “% Weed Control (Cd)” value (Cd (Cyperus difformis); [6]) was 100% and the “% Weed Control (Cd)” value (Cd (Cyperus difformis); [7]) was 100%. The “% Weed Control (Cd)” value (Cd (Cyperus difformis); [8]) was 100%, the “% Weed Control (Cd)” value (Cd (Cyperus difformis); [9]) was 100% and the “% Weed Control (Cd)” value (Cd (Cyperus difformis); [10]) was 100%. The “% Weed Control (Cd)” value (Cd (Cyperus difformis); [11]) was 100%, the “% Weed Control (Cd)” value (Cd (Cyperus difformis); [12]) was 100% and the “% Weed Control (Cd)” value (Cd (Cyperus difformis); [13]) was 100%. For the same compound, the “% Weed Control (Cd)” value (Cd (Cyperus difformis); [14]) was 100%, the “% Weed Control (Cd)” value (Cd (Cyperus difformis); [15]) was 100% and the “% Weed Control (Cd)” value (Cd (Cyperus difformis); [16]) was 100%. For the same compound, the “% Weed Control (Cd)” value (Cd (Cyperus difformis); [17]) was 100%, the “% Weed Control (Cd)” value (Cd (Cyperus difformis); [18]) was 100% and the “% Weed Control (Cd)” value (Cd (Cyperus difformis); [19]) was 100%. The “% Weed Control (Cd)” value (Cd (Cyperus difformis); [20]) was 100%, the “% Weed Control (Cd)” value (Cd (Cyperus difformis); [21]) was 100% and the “% Weed Control (Cd)” value (Cd (Cyperus difformis); [22]) was 100%. For the same compound, the “% Weed Control (Cd)” value (Cd (Cyperus difformis); [23]) was 100%, the “% Weed Control (Ec)” value [5, 6] was 100% and the “% Weed Control (Ec)” value [5, 7] was 100%. For the same compound, the “% Weed Control (Ec)” value [5, 8] was 100%, the “% Weed Control (Ec)” value [5, 9] was 100% and the “% Weed Control (Ec)” value [5, 10] was 100%. The “% Weed Control (Ec)” value [5, 11] was 100%, the “% Weed Control (Ec)” value [5, 12] was 100% and the “% Weed Control (Ec)” value [5, 13] was 100%. For the same compound, the “% Weed Control (Ec)” value [5, 14] was 100%, the “% Weed Control (Ec)” value [5, 15] was 100% and the “% Weed Control (Ec)” value [5, 16] was 100%. For the same compound, the “% Weed Control (Ec)” value [5, 17] was 100%, the “% Weed Control (Ec)” value [5, 18] was 100% and the “% Weed Control (Ec)” value [5, 19] was 100%. For the same compound, the “% Weed Control (Ec)” value [5, 20] was 100%, the “% Weed Control (Ec)” value [5, 21] was 100% and the “% Weed Control (Ec)” value [5, 22] was 95%. The “% Weed Control (Ec)” value [5, 23] was 100%, the safe application timing (transplanted rice; 2 days before transplant (Table 6) to 14 DAT (Table 4)) was “can safely be applied preemergence” and the “crop injury, transplanted rice” value (transplanted rice; recommended use rates) was “negligible crop injury”. The “activity against Sa” value (Sa (Sagittaria aginashi)) was “generally weak”.
